Data reported in the NIST ThermoML archive (doi:10.1016/j.fluid.2018.05.008).
Numbers after ± are expanded uncertainties.

Columns and labels:
[1] = xn = mol fraction of the nth substance listed; conditions: 100 kPa, Liquid, Vibrating tube method, x2 = 0.333
[2] = 100 kPa, Liquid, Vibrating tube method

NC(N)=O [urea] + C[N+](C)(C)CCO.[Cl-]
mass density ([1]; 293.15 K): 1199.7 ± 1.1 kg/m3 | mass density ([1]; 303.15 K): 1194.2 ± 1.1 kg/m3 | mass density ([1]; 313.15 K): 1188.6 ± 1.1 kg/m3 | mass density ([1]; 323.15 K): 1183.2 ± 1.1 kg/m3 | mass density ([1]; 333.15 K): 1178 ± 1.1 kg/m3

CCO [ethanol]
mass density ([2]; 293.15 K): 790.6 ± 1 kg/m3 | mass density ([2]; 303.15 K): 781.9 ± 1 kg/m3 | mass density ([2]; 313.15 K): 773.3 ± 1 kg/m3 | mass density ([2]; 323.15 K): 764.4 ± 1 kg/m3 | mass density ([2]; 333.15 K): 755.1 ± 1 kg/m3
